{"source": "patent US10899772B2", "about": "“IRAK4 modulators” (priority 2017, dated 2021)", "data": [{"biological_target": "human IRAK4 (Homo sapiens (Human), UniProt Q9NWZ3)", "sequence (Q9NWZ3 whole entry)": "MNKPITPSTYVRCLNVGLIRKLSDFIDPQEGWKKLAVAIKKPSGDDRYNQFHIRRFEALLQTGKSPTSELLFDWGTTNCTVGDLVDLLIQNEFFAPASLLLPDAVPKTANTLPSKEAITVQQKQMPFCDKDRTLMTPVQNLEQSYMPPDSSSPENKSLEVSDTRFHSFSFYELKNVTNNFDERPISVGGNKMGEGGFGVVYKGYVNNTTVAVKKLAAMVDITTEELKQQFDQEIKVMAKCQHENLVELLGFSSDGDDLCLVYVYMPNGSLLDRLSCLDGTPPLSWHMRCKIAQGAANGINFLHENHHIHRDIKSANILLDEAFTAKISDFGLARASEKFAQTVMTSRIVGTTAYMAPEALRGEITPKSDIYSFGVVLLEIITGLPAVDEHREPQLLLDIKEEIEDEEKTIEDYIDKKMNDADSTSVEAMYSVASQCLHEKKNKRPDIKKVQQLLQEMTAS", "assay": "IRAK4 kinase inhibition, Transcreener fluorescence polarization (ADP detection)", "type": "biochemical", "conditions": "recombinant full-length His6-IRAK4 1.25 nM; 125 μM ATP; 125 μM peptide; 90 min; Ki computed using ATP Km 642 μM", "protocol": "Compounds were assayed for inhibition of human IRAK4 and IRAK1 catalytic activity using recombinant enzyme produced from insect cells. Full-length IRAK4 protein, carrying an N-terminal His6-Tag, was obtained from Life Technologies (Carlsbad, Calif., USA). The IRAK1 construct was produced internally and was comprised of IRAK1 residues Arg194 to Ser712, preceded by an NH2-terminal His6 tag and the coding sequence for glutathione-S-transferase.\nKinase activities were assayed using the Transcreener-Fluorecescence polarization platform (BelBrook Labs, Madison, Wis., USA) that measures amounts of the reaction product, ADP.\n384 well assay plates spotted with compound received 4 μl of a 2× substrate (ATP+peptide) mix in reaction buffer, followed by 4 μl of 2× enzyme diluted in reaction buffer.", "units": {"Ki": "nM"}, "values": [{"smiles": "CC(C)(O)[C@H](F)CN1Cc2cc(NC(=O)c3coc(N4CCOCC4)n3)c(N3CCOCC3)cc2C1=O", "note": "[Example 15, (R)-N-(2-(2-Fluoro-3-hydroxy-3-methylbutyl)-6-morpholino-1-oxoisoindolin-5-yl)-2-morpholino-oxazole-4-carboxamide]", "Ki": 4.6}, {"smiles": "CCn1cccc(C(=O)Nc2cc3c(cc2N2CCOCC2)C(=O)N(C[C@@H](F)C(C)(C)O)C3)c1=O", "note": "[Example 5, (R)-1-Ethyl-N-(2-(2-fluoro-3-hydroxy-3-methylbutyl)-6-morpholino-1-oxoisoindolin-5-yl)-2-oxo-1,2-dihydropyridine-3-carboxamide]", "Ki": 5.6}, {"smiles": "C[C@H]1COCCN1c1nc(C(=O)Nc2cc3c(cc2N2CCOCC2)C(=O)N(C[C@@H](F)C(C)(C)O)C3)co1", "note": "[Example 10, N-[2-[(2R)-2-Fluoro-3-hydroxy-3-methyl-butyl]-6-morpholino-1-oxo-isoindolin-5-yl]-2-[(3S)-3-methylmorpholin-4-yl]oxazole-4-carboxamide]", "Ki": 7.6}, {"smiles": "C[C@H](O)c1cccc(C(=O)Nc2cc3c(cc2N2CCOCC2)C(=O)N(C[C@@H](F)C(C)(C)O)C3)n1", "note": "(racemic) [Example 22, N-[6-morpholino-1-oxo-2-[rac-(2R)-2-fluoro-3-hydroxy-3-methyl-butyl]isoindolin-5-yl]-6-[rac-(1S)-1-hydroxyethyl] pyridine-2-carboxamide]", "Ki": 9.2}, {"smiles": "COc1cccc(C(=O)Nc2cc3c(cc2N(C)C)C(=O)N(C[C@@H](F)C(C)(C)O)C3)n1", "note": "[Example 19, N-[6-(Dimethyl-amino)-2-[(2R)-2-fluoro-3-hydroxy-3-methyl-butyl]-1-oxo-isoindolin-5-yl]-6-methoxy-pyridine-2-carboxamide]", "Ki": 1.5}, {"smiles": "CO[C@H](C)c1cccc(C(=O)Nc2cc3c(cc2N2CCOCC2)C(=O)N(C[C@@H](F)C(C)(C)O)C3)n1", "note": "(racemic) [Example 23, N-[6-morpholino-1-oxo-2-[rac-(2R)-2-fluoro-3-hydroxy-3-methyl-butyl]isoindolin-5-yl]-6-[rac-(1R)-1-methoxyethyl] pyridine-2-carboxamide]", "Ki": 12}, {"smiles": "CC(C)(O)[C@H](F)CN1Cc2cc(NC(=O)c3cnc4cccnn34)c(N3CCOCC3)cc2C1=O", "note": "[Example 1, (R)—N-(2-(2-Fluoro-3-hydroxy-3-methylbutyl)-6-morpholino-1-oxoisoindolin-5-yl)imidazo[1,2-b]pyridazine-3-carboxamide]", "Ki": 5.1}, {"smiles": "Cc1ccc(-c2cc3c(cc2NC(=O)c2cnc(C)o2)CN(C[C@@H](F)C(C)(C)O)C3=O)nc1", "note": "[Example 14, (R)-N-(2-(2-Fluoro-3-hydroxy-3-methylbutyl)-6-(5-methyl-pyridin-2-yl)-1-oxoisoindolin-5-yl)-2-methyloxazole-5-carboxamide]", "Ki": 4.2}, {"smiles": "CC(C)(O)[C@H](F)CN1Cc2cc(NC(=O)c3cccc(CC(F)(F)F)n3)c(N3CCOCC3)cc2C1=O", "note": "(racemic) [Example 25, N-[6-morpholino-1-oxo-2-[rac-(2R)-2-fluoro-3-hydroxy-3-methyl-butyl]isoindolin-5-yl]-6-(2,2,2-trifluoroethyl)pyridine-2-carboxamide]", "Ki": 6.5}, {"smiles": "CO[C@@H](C)c1cccc(C(=O)Nc2cc3c(cc2N2CCOCC2)C(=O)N(C[C@@H](F)C(C)(C)O)C3)n1", "note": "(racemic) [Example 24, N-[6-morpholino-1-oxo-2-[rac-(2R)-2-fluoro-3-hydroxy-3-methyl-butyl]isoindolin-5-yl]-6-[rac-(1S)-1-methoxyethyl] pyridine-2-carboxamide]", "Ki": 33}, {"smiles": "C[C@@H](O)c1cccc(C(=O)Nc2cc3c(cc2N2CCOCC2)C(=O)N(C[C@@H](F)C(C)(C)O)C3)n1", "note": "(racemic) [Example 21, N-[6-morpholino-1-oxo-2-[rac-(2R)-2-fluoro-3-hydroxy-3-methyl-butyl]isoindolin-5-yl]-6-[rac-(1R)-1-hydroxyethyl] pyridine-2-carboxamide]", "Ki": 1.7}, {"smiles": "CC(C)(O)[C@H](F)CN1Cc2cc(NC(=O)c3cccc(C(F)(F)F)n3)c(N3CCOCC3)cc2C1=O", "note": "[Example 17, (R)—N-(2-(2-Fluoro-3-hydroxy-3-methylbutyl)-6-morpholino-1-oxoisoindolin-5-yl)-6-(trifluoromethyl)picolinamide]", "Ki": 2.5}, {"smiles": "Cn1cccc(C(=O)Nc2cc3c(cc2N2CCOCC2)C(=O)N(C[C@@H](F)C(C)(C)O)C3)c1=O", "note": "[Example 4, (R)-N-(2-(2-Fluoro-3-hydroxy-3-methylbutyl)-6-morpholino-1-oxoisoindolin-5-yl)-1-methyl-2-oxo-1,2-dihydropyridine-3-carboxamide]", "Ki": 8}, {"smiles": "CC(C)Oc1cccc(C(=O)Nc2cc3c(cc2N(C)C)C(=O)N(C[C@@H](F)C(C)(C)O)C3)n1", "note": "[Example 11, N-[6-(Dimethylamino)-2-[(2R)-2-fluoro-3-hydroxy-3-methyl-butyl]-1-oxo-isoindolin-5-yl]-6-isopropoxy-pyridine-2-carboxamide]", "Ki": 21}, {"smiles": "Cn1ccn2ncc(C(=O)Nc3cc4c(cc3N3CCOCC3)C(=O)N(C[C@@H](F)C(C)(C)O)C4)c2c1=O", "note": "[Example 26, N-[2-[(2R)-2-Fluoro-3-hydroxy-3-methyl-butyl]-6-morpholino-1-oxo-isoindolin-5-yl]-5-methyl-4-oxo-pyrazolo [1,5-a] pyrazine-3-carboxamide]", "Ki": 47}, {"smiles": "Cn1ncc(C(=O)Nc2cc3c(cc2N2CCOCC2)C(=O)N(C[C@@H](F)C(C)(C)O)C3)c1Cl", "note": "[Example 33, 5-Chloro-N-[2-[(2R)-2-fluoro-3-hydroxy-3-methyl-butyl]-6-morpholino-1-oxo-isoindolin-5-yl]-1-methyl-pyrazole-4-carboxamide]", "Ki": 51}, {"smiles": "CN(C)c1cc2c(cc1NC(=O)c1cccc(OC3CCNC3)n1)CN(C[C@@H](F)C(C)(C)O)C2=O", "note": "(stereo partly drawn) [Example 13, N-[6-(Dimethylamino)-2-[(2R)-2-fluoro-3-hydroxy-3-methyl-butyl]-1-oxo-isoindolin-5-yl]-6-pyrrolidin-3-yloxy-pyridine-2-carboxamide]", "Ki": 5.8}, {"smiles": "CC(C)(O)[C@H](F)CN1Cc2cc(NC(=O)c3cccc4[nH]cnc34)c(N3CCOCC3)cc2C1=O", "note": "[Example 32, N-[2-[(2R)-2-Fluoro-3-hydroxy-3-methyl-butyl]-6-morpholino-1-oxo-isoindolin-5-yl]-1H-benz-imidazole-4-carboxamide]", "Ki": 1.1}, {"smiles": "C[C@@H]1COCCN1c1nc(C(=O)Nc2cc3c(cc2N2CCOCC2)C(=O)N(C[C@@H](F)C(C)(C)O)C3)co1", "note": "(racemic) [Example 16, N-(2-((R)-2-fluoro-3-hydroxy-3-methylbutyl)-6-morpholino-1-oxoisoindolin-5-yl)-2-((R)-20-methyl-morpholino) oxazole-4-carboxamide]", "Ki": 7}, {"smiles": "CC(C)(O)[C@H](F)CN1Cc2cc(NC(=O)c3ccc[nH]c3=O)c(N3CCOCC3)cc2C1=O", "note": "[Example 3, (R)-N-(2-(2-Fluoro-3-hydroxy-3-methylbutyl)-6-morpholino-1-oxoisoindolin-5-yl)-2-oxo-1,2-dihydropyridine-3-carboxamide]", "Ki": 8.2}]}]}
